Columns and labels:
CTGF gene = experiment: RT-PCR analysis of CTGF gene expression in ovarian cancer cell lines after treatment with demethylating reagent or deacetylation inhibitory agent; assay type: cell-based; settings: ovarian cancer cell lines HNOA and RMG-II not expressing the CTGF gene
Procedure: D: Ovarian cancer cell lines (HNOA and […]) were treated (+) or not treated (−) with 5-aza-dCyd (5 μM) for 5 days or TSA (100 ng/ml) for 12 hours. The results of RT-PCR analysis on the CTGF gene in the ovarian cancer cell lines.
To examine the expression levels of the 7 above genes (the CTGF gene, the ENPP1 gene, the ENPP3 gene, the CRSP3 gene, the AKAP7 gene, the EPB41L2 gene, and the KIAA1913 gene), 24 types of ovarian cancer cell line, normal ovary, and a normal ovarian epithelial cell-derived immortalized cell line (OSE-2a) were subjected to reverse transcriptase (RT)-PCR. Specifically, a single-chain cDNA was synthesized from the RNA extracted from each cultured cell line using the SuperScript First-Strand Synthesis System (Invitrogen). Moreover, a glyceraldehyde-3-phosphate dehydrogenase (GAPDH) gene was used as a control. As a result, decreased expression levels of the CTGF gene, the ENPP1 gene, and the KIAA1913 gene were shown, compared with the case of normal ovary or OSE-2a cells (FIG. 1D), although chromosomal region 6q23.1-23.2 had not undergone homozygous deletion. This may be due to a mechanism other than genomic deletion, such as an epigenetic phenomenon in ovarian cancer cell lines. Moreover, in the above experiment, the ARG1 gene was not subjected to examination, since the gene is not expressed in the ovary according to the results of analyzing the gene expression database (ncbi.Nlm.nih.gov and http://www.lsbm.org/database/index.html).
To examine if suppressed CTGF gene expression is due to DNA methylation, ovarian cancer cell lines (HNOA and RMG-II) not expressing the CTGF gene were treated using 5 μM demethylating reagent 5-aza-dCyd for 5 days or using deacetylation inhibitory agent TSA (100 ng/ml) for 12 hours. RNAs were extracted from these cells and then CTGF gene expression was examined by RT-PCR (FIG. 1D).

[1] = test system: CpG islands of the CTGF gene; experiment: Demethylation of CpG islands of the CTGF gene in ovarian cancer cells cultured with demethylating reagent; assay type: cell-based; settings: ovarian cancer cells cultured in the presence of the reagent

SMILES	CTGF gene expression (RT-PCR) (CTGF gene; 5 μM for 5 days)	CTGF gene expression (RT-PCR) (CTGF gene; 5 μM for 5 days, listed as 5-azadeoxycytidine)	demethylation of CpG islands [1]	CTGF gene expression (RT-PCR) (CTGF gene; 100 ng/ml for 12 hours)
Nc1ncn([C@H]2C[C@H](O)[C@@H](CO)O2)c(=O)n1 [5-aza-dCyd, 5-azadeoxycytidine]	recovers its gene expression	recover the expression level of the CTGF gene	possible to demethylate such CpG islands	–
CC(/C=C/C(=O)NO)=C\[C@@H](C)C(=O)c1ccc(N(C)C)cc1 [TSA]	–	–	–	no differences

Source: patent US8741641B2, “Methods for evaluating the stage of ovarian cancer or the survival rate of an ovarian cancer patient” (Fujifilm Corporation, priority 2007, dated 2014)
